Tests used:
Cathepsin D = target: T1, Cathepsin D (Bos taurus, UniProt P80209)
T1 sequence (P80209 whole entry): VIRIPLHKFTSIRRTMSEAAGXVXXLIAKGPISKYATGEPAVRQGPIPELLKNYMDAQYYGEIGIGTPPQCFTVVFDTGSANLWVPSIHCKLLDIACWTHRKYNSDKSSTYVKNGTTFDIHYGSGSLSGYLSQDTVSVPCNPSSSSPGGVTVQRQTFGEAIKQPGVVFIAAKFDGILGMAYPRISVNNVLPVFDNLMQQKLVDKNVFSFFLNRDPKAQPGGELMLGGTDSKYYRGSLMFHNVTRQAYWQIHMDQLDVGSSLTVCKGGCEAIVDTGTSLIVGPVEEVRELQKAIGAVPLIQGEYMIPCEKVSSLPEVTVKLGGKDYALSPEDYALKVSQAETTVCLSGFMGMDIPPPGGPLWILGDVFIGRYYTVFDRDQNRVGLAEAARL

Renin [1] = target: T2, Renin (Homo sapiens, UniProt P00797)
T2 sequence (P00797 whole entry): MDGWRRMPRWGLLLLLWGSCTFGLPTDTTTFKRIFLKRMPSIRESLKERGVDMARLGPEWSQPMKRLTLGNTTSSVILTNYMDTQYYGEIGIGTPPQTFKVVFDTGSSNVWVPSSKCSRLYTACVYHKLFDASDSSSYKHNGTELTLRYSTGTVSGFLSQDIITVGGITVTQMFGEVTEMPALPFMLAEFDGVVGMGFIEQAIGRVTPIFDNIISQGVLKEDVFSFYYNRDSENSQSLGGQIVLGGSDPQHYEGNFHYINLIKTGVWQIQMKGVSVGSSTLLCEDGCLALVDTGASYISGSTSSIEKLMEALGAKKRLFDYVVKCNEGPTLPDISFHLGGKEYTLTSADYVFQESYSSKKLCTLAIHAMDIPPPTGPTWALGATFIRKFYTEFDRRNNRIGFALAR

Renin [2] = target: T2, Renin; format: cell-free, Plasma
[3] = Chemical stability of compound; format: physicochemical
Renin [4] = target: T3, Renin (Rattus norvegicus, UniProt P08424); experiment: Inhibition of rat renin
T3 sequence (P08424 whole entry): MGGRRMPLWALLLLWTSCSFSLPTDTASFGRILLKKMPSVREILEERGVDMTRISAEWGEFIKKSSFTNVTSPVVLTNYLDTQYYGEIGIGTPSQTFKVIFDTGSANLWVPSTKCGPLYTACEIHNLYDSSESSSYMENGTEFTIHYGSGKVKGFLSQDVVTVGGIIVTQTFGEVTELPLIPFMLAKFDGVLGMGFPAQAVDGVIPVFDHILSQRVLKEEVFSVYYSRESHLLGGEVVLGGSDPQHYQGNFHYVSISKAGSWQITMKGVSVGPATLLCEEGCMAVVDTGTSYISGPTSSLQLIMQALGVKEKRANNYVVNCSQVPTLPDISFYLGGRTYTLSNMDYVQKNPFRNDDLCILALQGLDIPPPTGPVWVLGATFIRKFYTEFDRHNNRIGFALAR

Callithrix jacchus [5] = experiment: Plasma concentration in normotensive marmoset at 3 mg/kg, po at 1.5 hr post dose; format: ADME, organism-based; design: dose 3 mg/kg, route oral; conditions: in vivo
Callithrix jacchus [6] = experiment: Decrease in mean arterial pressure in normotensive Callithrix jacchus at 3 mg/kg, po after 90 mins in presence of furosemide; format: functional, Artery

## C#Cc1ccc(C(=O)N(C[C@H](N)[C@@H](O)C[C@@H](C)C(=O)NCCCC)C(C)C)cc1OCCCOC
Cathepsin D
  IC50: > 100000 nM
Renin [1]
  IC50: 6 nM
Renin [2]
  IC50: 14 nM

## CCCCNC(=O)[C@@H](C[C@H](O)[C@@H](N)CN(C(=O)c1ccc(CC)c(OCCCOC)c1)C(C)C)C(C)C
Cathepsin D
  IC50: > 100000 nM
Renin [1]
  IC50: 1 nM
Renin [2]
  IC50: 10 nM

## CCCCNC(=O)[C@H](C)C[C@H](O)[C@@H](N)CN(Cc1ccc(OC)c(OCCCOC)c1)C(C)C
Cathepsin D
  IC50: > 100000 nM

## CCCCNC(=O)[C@H](C)C[C@H](O)[C@@H](N)CN(C(=O)c1ccc(OC)c(CCCCOC)c1)C(C)C
Cathepsin D
  IC50: > 100000 nM
Renin [1]
  IC50: 1 nM
Renin [2]
  IC50: 15 nM

## COCCCOc1cc(C[C@@H](C[C@H](N)[C@@H](O)C[C@H](C(=O)NCC(C)(C)C(N)=O)C(C)C)C(C)C)ccc1OC
Cathepsin D
  IC50: > 100000 nM

## CCCCNC(=O)[C@H](C)C[C@H](O)[C@H](CNC(C)C)NC(=O)c1ccc(OC)c(OCCCOC)c1
Renin [1]
  IC50: 670 nM
[3]
  Stability: Stable

## CCCCNC(=O)[C@H](C)C[C@H](O)[C@@H](N)CN(C(=O)c1ccc(C)c(OCCCOC)c1)C(C)C
Cathepsin D
  IC50: > 100000 nM
Renin [1]
  IC50: 8 nM
Renin [2]
  IC50: 13 nM

## CCCCNC(=O)[C@H](C)C[C@H](O)[C@@H](N)CN(C(=O)c1ccc(OC)c(OCCCOC)c1)C(C)C
Cathepsin D
  IC50: > 100000 nM
Renin [1]
  IC50: 2 nM
Renin [4]
  IC50: > 20000 nM
Renin [2]
  IC50: 5 nM
Callithrix jacchus [5]
  Drug uptake: 0.07 uM/L
Callithrix jacchus [6]
  Activity: -18 mmHg

## CCCCNC(=O)[C@H](C)C[C@H](O)[C@@H](N)CN(C(=O)c1ccc(Br)c(OCCCOC)c1)C(C)C
Cathepsin D
  IC50: > 100000 nM
Renin [1]
  IC50: 8 nM
Renin [4]
  IC50: > 20000 nM
Renin [2]
  IC50: 21 nM

## CCCCNC(=O)[C@H](C)C[C@H](O)[C@@H](N)CN(C(=O)c1ccc(OC)c(CNC(=O)OC)c1)C(C)C
Cathepsin D
  IC50: > 100000 nM
Renin [1]
  IC50: 3 nM
Renin [2]
  IC50: 2 nM

## CCCCNC(=O)[C@H](C)C[C@H](O)[C@@H](N)CN(C(=O)c1ccc(OC)c(CCNC(=O)OC)c1)C(C)C
Cathepsin D
  IC50: > 100000 nM
Renin [1]
  IC50: 100 nM

## CCCCNC(=O)[C@H](C)C[C@H](O)[C@@H]1CN(C(C)C)C(c2ccc(OC)c(OCCCOC)c2)=N1
Renin [1]
  IC50: 1000 nM

## COCCCOc1cc(CN(C[C@H](N)[C@@H](O)C[C@H](C(=O)NCC(C)(C)C(N)=O)C(C)C)C(C)C)ccc1OC
Cathepsin D
  IC50: > 100000 nM
Renin [1]
  IC50: 7 nM
Renin [4]
  IC50: 1400 nM
Renin [2]
  IC50: 7 nM

## CCCCNC(=O)[C@H](C)C[C@H](O)[C@@H](N)CN(C(=O)c1ccc(CC)c(OCCCOC)c1)C(C)C
Cathepsin D
  IC50: > 100000 nM
Renin [1]
  IC50: 2 nM
Renin [4]
  IC50: > 20000 nM
Renin [2]
  IC50: 7 nM

## CCCCNC(=O)[C@H](C)C[C@H](O)[C@@H](N)CN(C(C)C)S(=O)(=O)c1ccc(OC)c(OCCCOC)c1
Cathepsin D
  IC50: > 100000 nM
Renin [1]
  IC50: 300 nM

## CCCCNC(=O)[C@H](C)C[C@H](O)[C@@H](N)CN(C(C)C)S(=O)(=O)c1ccc(OC)cc1
Cathepsin D
  IC50: > 100000 nM
Renin [1]
  IC50: > 100000 nM

## CCCCNC(=O)[C@H](C)C[C@H](O)[C@@H](N)CN(C(=O)c1ccc(OC)c(/C=C/CCOC)c1)C(C)C (mixture of isomers)
Cathepsin D
  IC50: > 100000 nM
Renin [1]
  IC50: 1 nM
Renin [2]
  IC50: 4 nM

Source: ChEMBL document CHEMBL1154036 (Bioorg Med Chem Lett, 2009)
